Holding throughout (assay type): binding
What all share (parameters): KINOMEscan: ABL1(F317L)-phosphorylated / KINOMEscan: ABL1(H396P)-nonphosphorylated / KINOMEscan: ABL1(H396P)-phosphorylated / KINOMEscan: ABL1(M351T)-phosphorylated / KINOMEscan: ABL1(T315I)-phosphorylated / KINOMEscan: ABL1-nonphosphorylated / KINOMEscan: ABL1-phosphorylated / KINOMEscan: ACVR2A / KINOMEscan: ACVR2B / KINOMEscan: ADCK3 / KINOMEscan: ADCK4 / KINOMEscan: AKT1 / KINOMEscan: AKT3 / KINOMEscan: ALK / KINOMEscan: ARK5 / KINOMEscan: AURKA / KINOMEscan: AURKC / KINOMEscan: BIKE / KINOMEscan: BMPR1A / KINOMEscan: BMPR1B / KINOMEscan: BMX / KINOMEscan: BRK / KINOMEscan: BRSK1 / KINOMEscan: BRSK2 / KINOMEscan: CAMK1 / KINOMEscan: CAMK1D / KINOMEscan: CAMK1G / KINOMEscan: CAMK2A / KINOMEscan: CAMK2B / KINOMEscan: AAK1 / KINOMEscan: CAMK2D / KINOMEscan: CAMK2G / KINOMEscan: ABL1(F317I)-nonphosphorylated / KINOMEscan: ABL1(F317I)-phosphorylated / KINOMEscan: ABL1(F317L)-nonphosphorylated: unit: % Ctrl

The target in assay [1] is T1, panel of 442 kinases (Homo sapiens, UniProt P29597).
T1 construct: purchased KINOMEscan
T1 sequence (P29597 whole entry): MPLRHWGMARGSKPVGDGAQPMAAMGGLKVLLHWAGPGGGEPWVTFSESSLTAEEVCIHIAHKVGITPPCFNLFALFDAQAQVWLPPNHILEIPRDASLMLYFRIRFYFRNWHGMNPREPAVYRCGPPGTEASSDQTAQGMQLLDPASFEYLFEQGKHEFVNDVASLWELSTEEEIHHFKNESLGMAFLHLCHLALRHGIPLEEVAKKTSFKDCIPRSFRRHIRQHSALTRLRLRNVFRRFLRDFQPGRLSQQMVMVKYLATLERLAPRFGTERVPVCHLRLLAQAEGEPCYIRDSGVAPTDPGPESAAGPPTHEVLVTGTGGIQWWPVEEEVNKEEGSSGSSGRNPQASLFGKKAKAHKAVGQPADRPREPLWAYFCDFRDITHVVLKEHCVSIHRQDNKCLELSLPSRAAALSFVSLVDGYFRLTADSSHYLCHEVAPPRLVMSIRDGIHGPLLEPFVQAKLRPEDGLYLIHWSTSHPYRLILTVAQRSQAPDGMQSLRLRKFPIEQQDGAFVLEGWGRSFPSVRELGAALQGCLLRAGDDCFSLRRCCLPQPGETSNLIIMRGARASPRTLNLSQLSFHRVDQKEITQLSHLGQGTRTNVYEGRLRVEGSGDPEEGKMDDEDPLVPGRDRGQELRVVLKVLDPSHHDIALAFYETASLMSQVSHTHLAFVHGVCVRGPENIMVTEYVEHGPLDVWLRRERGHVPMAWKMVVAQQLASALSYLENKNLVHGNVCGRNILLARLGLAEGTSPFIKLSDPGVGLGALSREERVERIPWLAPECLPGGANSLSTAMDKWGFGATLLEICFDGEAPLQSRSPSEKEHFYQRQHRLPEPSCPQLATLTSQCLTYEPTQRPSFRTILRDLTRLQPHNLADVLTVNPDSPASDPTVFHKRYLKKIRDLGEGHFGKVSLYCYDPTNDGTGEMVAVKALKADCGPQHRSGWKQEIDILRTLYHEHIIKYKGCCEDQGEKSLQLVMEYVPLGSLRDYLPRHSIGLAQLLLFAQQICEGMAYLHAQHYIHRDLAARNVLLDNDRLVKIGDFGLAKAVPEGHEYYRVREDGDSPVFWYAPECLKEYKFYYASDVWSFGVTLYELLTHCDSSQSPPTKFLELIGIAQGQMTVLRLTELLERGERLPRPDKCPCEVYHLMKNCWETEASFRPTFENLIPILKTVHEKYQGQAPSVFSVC
The note with it: compound concentration 10 µM; for % Ctrl, TYK2(JH1domain-catalytic): kinase TYK2(JH1domain-catalytic); for % Ctrl, TYK2(JH2domain-pseudokinase): kinase TYK2(JH2domain-pseudokinase). The source says:
(§1) We assessed the selectivity of members of this scaffold using the KINOMEscan methodology across a near comprehensive panel of 442 kinases [[18,27]].

In assay [2] the target is T2, panel of 442 kinases (Homo sapiens, UniProt O00238).
T2 construct: purchased KINOMEscan
T2 sequence (O00238 14-502): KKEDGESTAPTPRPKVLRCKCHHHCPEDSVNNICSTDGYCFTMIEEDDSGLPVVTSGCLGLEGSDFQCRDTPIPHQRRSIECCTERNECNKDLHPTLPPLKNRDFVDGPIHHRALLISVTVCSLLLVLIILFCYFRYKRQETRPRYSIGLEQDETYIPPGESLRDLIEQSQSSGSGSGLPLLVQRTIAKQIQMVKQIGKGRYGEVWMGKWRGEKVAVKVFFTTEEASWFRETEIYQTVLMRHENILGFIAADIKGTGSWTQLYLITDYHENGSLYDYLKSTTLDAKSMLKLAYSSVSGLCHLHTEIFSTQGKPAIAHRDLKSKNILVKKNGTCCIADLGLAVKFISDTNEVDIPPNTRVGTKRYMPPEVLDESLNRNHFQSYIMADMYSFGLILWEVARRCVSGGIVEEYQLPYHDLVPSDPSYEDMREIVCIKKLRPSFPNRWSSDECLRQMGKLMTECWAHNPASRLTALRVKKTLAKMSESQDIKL
As to conditions: Compound Concentration 10 µM.
Text: as §1

Assay [3] has as its target T3, panel of 442 kinases (Homo sapiens, UniProt P10721, D816H).
T3 construct: purchased KINOMEscan
The note with it: Compound Concentration 10 µM.
Text: as §1

In assay [4] the target is T4, panel of 442 kinases (Homo sapiens, UniProt Q8N4C8).
T4 construct: purchased KINOMEscan
T4 sequence (Q8N4C8 whole entry): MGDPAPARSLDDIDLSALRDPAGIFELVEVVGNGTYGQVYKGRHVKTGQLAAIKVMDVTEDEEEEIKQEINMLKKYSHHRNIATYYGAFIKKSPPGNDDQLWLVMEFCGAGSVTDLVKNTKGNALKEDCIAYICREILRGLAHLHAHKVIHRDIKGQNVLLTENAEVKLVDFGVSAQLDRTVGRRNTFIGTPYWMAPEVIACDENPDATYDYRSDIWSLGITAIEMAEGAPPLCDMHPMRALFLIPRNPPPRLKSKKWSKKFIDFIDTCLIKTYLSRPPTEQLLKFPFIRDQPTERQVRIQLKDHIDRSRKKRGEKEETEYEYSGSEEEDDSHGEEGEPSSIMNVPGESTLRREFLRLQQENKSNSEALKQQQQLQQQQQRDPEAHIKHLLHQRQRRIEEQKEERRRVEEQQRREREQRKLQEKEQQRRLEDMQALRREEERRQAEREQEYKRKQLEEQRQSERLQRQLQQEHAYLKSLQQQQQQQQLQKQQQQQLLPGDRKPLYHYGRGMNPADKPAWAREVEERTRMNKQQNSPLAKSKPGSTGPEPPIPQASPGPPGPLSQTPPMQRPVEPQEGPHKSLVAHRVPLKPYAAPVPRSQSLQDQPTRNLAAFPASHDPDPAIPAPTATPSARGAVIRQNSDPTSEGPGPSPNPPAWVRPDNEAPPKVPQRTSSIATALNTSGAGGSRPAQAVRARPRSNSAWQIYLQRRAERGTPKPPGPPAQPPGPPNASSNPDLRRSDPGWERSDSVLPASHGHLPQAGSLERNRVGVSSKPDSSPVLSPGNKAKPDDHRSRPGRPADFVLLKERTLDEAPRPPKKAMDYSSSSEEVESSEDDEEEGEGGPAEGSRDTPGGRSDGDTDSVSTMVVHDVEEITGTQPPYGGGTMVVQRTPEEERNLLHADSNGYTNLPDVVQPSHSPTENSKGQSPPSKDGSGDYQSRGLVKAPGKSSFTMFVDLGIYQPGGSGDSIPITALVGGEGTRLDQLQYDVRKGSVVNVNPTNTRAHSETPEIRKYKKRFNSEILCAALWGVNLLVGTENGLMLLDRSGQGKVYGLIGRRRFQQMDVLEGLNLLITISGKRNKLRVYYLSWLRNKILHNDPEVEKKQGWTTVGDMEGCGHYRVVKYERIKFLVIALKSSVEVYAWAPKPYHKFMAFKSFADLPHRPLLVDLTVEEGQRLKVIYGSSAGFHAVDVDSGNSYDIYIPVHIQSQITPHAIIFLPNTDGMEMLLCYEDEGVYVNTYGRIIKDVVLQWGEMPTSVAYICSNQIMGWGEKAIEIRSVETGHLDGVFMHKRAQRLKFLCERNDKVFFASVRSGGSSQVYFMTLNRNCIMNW
The note with it: Compound Concentration 10 µM.
Text: as §1

SMILES strings stand for the structures.

T3 sequence (P10721 26-976 D816H): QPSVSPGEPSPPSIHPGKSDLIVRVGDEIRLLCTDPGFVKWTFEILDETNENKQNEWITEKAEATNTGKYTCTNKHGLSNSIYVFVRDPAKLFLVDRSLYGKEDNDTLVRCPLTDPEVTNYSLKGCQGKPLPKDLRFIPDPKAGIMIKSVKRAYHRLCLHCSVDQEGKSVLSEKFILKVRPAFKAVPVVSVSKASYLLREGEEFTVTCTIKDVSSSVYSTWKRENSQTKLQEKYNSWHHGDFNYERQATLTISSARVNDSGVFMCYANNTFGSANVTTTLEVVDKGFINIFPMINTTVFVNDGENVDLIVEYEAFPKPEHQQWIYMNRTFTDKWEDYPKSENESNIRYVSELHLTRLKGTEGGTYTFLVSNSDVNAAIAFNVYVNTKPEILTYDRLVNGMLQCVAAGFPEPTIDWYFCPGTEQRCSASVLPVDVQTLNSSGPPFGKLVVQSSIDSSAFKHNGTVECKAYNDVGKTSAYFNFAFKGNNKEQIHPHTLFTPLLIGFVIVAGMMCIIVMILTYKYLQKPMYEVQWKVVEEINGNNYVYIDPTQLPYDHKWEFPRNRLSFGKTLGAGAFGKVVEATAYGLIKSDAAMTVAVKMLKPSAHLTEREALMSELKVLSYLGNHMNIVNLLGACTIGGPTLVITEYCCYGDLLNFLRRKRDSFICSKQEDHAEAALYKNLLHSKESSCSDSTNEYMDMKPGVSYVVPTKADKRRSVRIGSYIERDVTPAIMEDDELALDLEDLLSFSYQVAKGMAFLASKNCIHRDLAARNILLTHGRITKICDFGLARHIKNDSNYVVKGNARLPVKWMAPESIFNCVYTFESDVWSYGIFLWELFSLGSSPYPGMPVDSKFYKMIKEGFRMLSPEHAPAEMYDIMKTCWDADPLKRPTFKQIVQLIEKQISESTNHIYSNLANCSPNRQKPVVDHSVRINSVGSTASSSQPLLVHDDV

In the case of `CCOc1cc(C(=O)N2CCC(N3CCN(C)CC3)CC2)ccc1Nc1ncc2c(n1)N(C1CCCC1)c1ccccc1C(=O)N2C` [Compound 26], on panel of 442 kinases [1], the “% Ctrl, TYK2(JH1domain-catalytic)” value is recorded as 81 % Ctrl and the “% Ctrl, TYK2(JH2domain-pseudokinase)” value is 100 % Ctrl. Also, the “KINOMEscan: BMPR1B” value at panel of 442 kinases [2] was determined as 100. Further, the “KINOMEscan: KIT(D816H)” value on panel of 442 kinases [3] came to 100. Besides, the “KINOMEscan: MINK” value at panel of 442 kinases [4] was determined as 100.
As to `COc1cc(C(=O)N2CCC(N3CCN(C)CC3)CC2)ccc1Nc1ncc2c(n1)N1CCc3cccc(c31)C(=O)N2C` [Compound 24], on panel of 442 kinases [2], the “KINOMEscan: BMPR1B” value is on record as 97. The “KINOMEscan: MINK” value on panel of 442 kinases [4] stood at 36.
As to `COc1cc(C(=O)N2CCC(N3CCN(C)CC3)CC2)ccc1Nc1ncc2c(n1)N(C)c1ccccc1C(=O)N2C` [15 (LRRK2-IN-1)], on panel of 442 kinases [1], the “% Ctrl, TYK2(JH1domain-catalytic)” value amounted to 52 % Ctrl and the “% Ctrl, TYK2(JH2domain-pseudokinase)” value is given as 100 % Ctrl. For the same molecule, the “KINOMEscan: BMPR1B” value on panel of 442 kinases [2] is reported as 76. The “KINOMEscan: KIT(D816H)” value at panel of 442 kinases [3] is 100. The “KINOMEscan: MINK” value at panel of 442 kinases [4] turned out to be 77.
The like results for `COc1cc(C(=O)N2CCC(N3CCN(C)CC3)CC2)ccc1Nc1ncc2c(n1)N(C1CCCC1)c1ccccc1C(=O)N2C` [Compound 25, 11-cyclopentyl-2-((2-methoxy-4-(4-(4-methylpiperazin-1-yl)piperidine-1-carbonyl)phenyl)amino)-5-methyl-5H-benzo[e]pyrimido[5,4-b][1,4]diazepin-6(11H)-one] were, in that order, 100 % Ctrl, 100 % Ctrl, 98, 100 and 100.
